# Tests used:
# Format in all cases: physicochemical
# [1] = Solubility of Compound 1
# [2] = log p of Compound 1
# [3] = Thermal gravimetric analysis (TGA); conditions: elevated temperatures below 200° C.
# Method: A suitable hot melt extruder (e.g. twin screw, Leistritz Nano-16 mm or Micro-18 mm) is set up with the appropriate supporting equipment, including a cooling conveyor (e.g., Domer model 220M060600D0169 or Nara TBC-309-DC) and feeder with auger (e.g., K-Tron Gravimeteric Feeder e.g., with dual flight 20 mm auger). Example processing parameters are as follows: feed rate: 2.0 kg/hr; screw speed: 250 rpm; and barrel temperature: 170, 140, 90, 50° C. or 1.0 kg/hr; screw speed: 275 rpm; and barrel temperature: 175, 140, 90, 50° C.
structure (smiles),measurement,setting,value
"C[C@@H](NC(=O)c1ncnc(N)c1Cl)c1ncc(C(=O)Nc2cc(C(F)(F)F)c(Cl)cn2)s1 [Compound 1, (R)-2-(1-(6-amino-5-chloropyrimidine-4-carboxamido)ethyl)-N-(5-chloro-4-(trifluoromethyl)pyridin-2-yl)thiazole-5-carboxamide]",solubility,[1],< 1000 µg/mL
same,logP,[2],3.63
same,thermal stability by TGA,[3],relatively stable
